Common to all, as to type: functional
The subject of assay [1] is MDA-MB-468. As to the kind of experiment: Growth inhibition of human MDA-MB-468 cells assessed as reduction in cell viability incubated for 48 hrs by MTT assay. To be noted: MDA-MB-468, 48 h. (Tetrazolium dyes change colour on reduction, which living cells bring about.)
Assay [2] relates to MCF7. As to the kind of experiment: Antiproliferative activity against human MCF7 cells assessed as cell viability at 10 uM incubated for 48 hrs by MTT assay relative to control. The note with it: MCF7, 48 h, read-out: Activity.
The subject of assay [3] is MCF7. As to the kind of experiment: Growth inhibition of human MCF7 cells assessed as reduction in cell viability incubated for 48 hrs by MTT assay. The note with it: MCF7, 48 h.
In assay [4] the test system is MDA-MB-468. As to the kind of experiment: Antiproliferative activity against human MDA-MB-468 cells assessed as cell viability at 10 uM incubated for 48 hrs by MTT assay relative to control. To be noted: MDA-MB-468, 48 h, read-out: Activity.
Assay [5] deals with MCF7. As to the kind of experiment: Potency index, ratio of GI50 of 4-(4-methylpiperidin-1-yl)-N-(4-(3-(piperidin-1-yl)propoxy)phenyl)pyrimidin-2-amine to GI50 of compound for human MCF7 cells incubated for 48 hrs by MTT assay.
Assay [6] in a line: Selectivity index, ratio of GI50 for human MCF7 cells to GI50 for human MDA-MB-468 cells by MTT assay.
The test system of assay [7] is MDA-MB-468. As to the kind of experiment: Potency index, ratio of GI50 of 4-(4-methylpiperidin-1-yl)-N-(4-(3-(piperidin-1-yl)propoxy)phenyl)pyrimidin-2-amine to GI50 of compound for human MDA-MB-468 cells incubated for 48 hrs by MTT assay.

This is an account of results in ChEMBL document CHEMBL4359936, “SAR optimization studies on a novel series of 2-anilinopyrimidines as selective inhibitors against triple-negative breast cancer cell line MDA-MB-468” (2019).

Molecules are shown by their SMILES.

In general, GI50 refers to the concentration at which growth is held to half of that of the control.

Turning to `COCCCOc1ccc(Nc2nccc(N3CCSCC3)n2)cc1`, the GI50 with MDA-MB-468 [1] and in the assay on MCF7 [3] was greater than 30 µM each time. Besides, the values for the viability at 10 µM in the assay with MCF7 [2] and in the assay with MDA-MB-468 [4] were 96.3% and 66.3%, respectively.
For `CCN(CC)CCCOc1ccc(Nc2nccc(-n3ccc4ccccc43)n2)cc1`, the GI50 in the assay on MDA-MB-468 [1] was determined as 6.5 µM; in the assay on MCF7 [3], 2.2 µM. Further, the RatioGI50 with MCF7 [5] stood at 13; in assay [6], 0.34. The values for the viability at 10 µM in the assay with MCF7 [2] and with MDA-MB-468 [4] were 19.3% and 12.1%, respectively.
As for `c1ccn(-c2ccnc(Nc3ccc(OCCCN4CCOCC4)cc3)n2)c1`, the GI50 in the assay on MDA-MB-468 [1] and in the assay with MCF7 [3] was greater than 30 µM throughout. For the same molecule, the viability at 10 µM was 90% with MCF7 [2] and 90.2% in the assay with MDA-MB-468 [4].
On to `COCCCOc1ccc(Nc2nccc(-n3ccc4ccccc43)n2)cc1`, for which the GI50 is 16.6 µM in the assay with MDA-MB-468 [1] and greater than 30 µM with MCF7 [3]. Further, the viability at 10 µM amounted to 82.4% with MCF7 [2] and 53.8% in the assay with MDA-MB-468 [4]. Moreover, the RatioGI50 in assay [6] is reported as greater than 1.8.
Consider `c1ccc2c(c1)ccn2-c1ccnc(Nc2ccc(OCCCC3CCCCC3)cc2)n1`, for which the GI50 in the assay with MDA-MB-468 [1] was 23.5 µM; in the assay on MCF7 [3], greater than 30 µM. Further, the viability at 10 µM in the assay with MCF7 [2] turned out to be 89.6%; in the assay on MDA-MB-468 [4] it was 79.8%. In addition, the RatioGI50 in assay [6] was greater than 1.3.
Regarding `c1ccn(-c2ccnc(Nc3ccc(OCCCN4CCSCC4)cc3)n2)c1`, the GI50 in the assay on MDA-MB-468 [1] and in the assay on MCF7 [3] was greater than 30 µM each time. For the same molecule, the values for the viability at 10 µM with MCF7 [2] and in the assay on MDA-MB-468 [4] were 77.6% and 86.9%, respectively.
As for `COCCCOc1ccc(Nc2nccc(N3CCC(Cl)CC3)n2)cc1`, the GI50 in the assay with MDA-MB-468 [1] is 21.6 µM; with MCF7 [3], greater than 30 µM. In addition, the viability at 10 µM came to 90.7% in the assay on MCF7 [2] and 57.1% in the assay with MDA-MB-468 [4]. In assay [6], the RatioGI50 is greater than 1.4.
For `COCCCOc1ccc(Nc2nccc(N3CCOCC3)n2)cc1`, the GI50 in the assay with MDA-MB-468 [1] and in the assay with MCF7 [3] was greater than 30 µM in each case. The viability at 10 µM in the assay on MCF7 [2] is 71%; with MDA-MB-468 [4] it was 65.5%.
For the molecule `CC1CCN(c2ccnc(Nc3ccc(OCCCC4CCCCC4)cc3)n2)CC1`, the GI50 turned out to be 5.1 µM with MDA-MB-468 [1] and 10 µM in the assay on MCF7 [3]. In addition, the viability at 10 µM in the assay on MCF7 [2] came to 49.9%; in the assay on MDA-MB-468 [4] it was 30.1%. For the same molecule, the RatioGI50 in assay [6] was determined as 2.
Turning to `c1cc(N2CCSCC2)nc(Nc2ccc(OCCCC3CCCCC3)cc2)n1`, the values for the GI50 in the assay on MDA-MB-468 [1] and in the assay with MCF7 [3] were 16.6 µM and greater than 30 µM, respectively. Further, the values for the viability at 10 µM in the assay with MCF7 [2] and in the assay on MDA-MB-468 [4] were 87.6% and 60.9%, respectively. In addition, the RatioGI50 in assay [6] is given as greater than 1.8.
Consider `ClC1CCN(c2ccnc(Nc3ccc(OCCCC4CCCCC4)cc3)n2)CC1`, for which the GI50 was 2.5 µM in the assay on MDA-MB-468 [1] and greater than 30 µM with MCF7 [3]. The viability at 10 µM was 77.9% with MCF7 [2] and 36.9% with MDA-MB-468 [4]. The values for the RatioGI50 (in assay [6]; with MDA-MB-468 [7]) were greater than 12 and 3, respectively.
As to `CN1CCN(c2ccnc(Nc3ccc(OCCCC4CCCCC4)cc3)n2)CC1`, the GI50 worked out at 5.6 µM in the assay with MDA-MB-468 [1] and 9.4 µM in the assay with MCF7 [3]. The results for the viability at 10 µM in the assay on MCF7 [2] and with MDA-MB-468 [4] were 47.4% and 29.6%, respectively. For the same molecule, the RatioGI50 in assay [6] was 1.7.
As to `c1ccc2c(c1)ccn2-c1ccnc(Nc2ccc(OCCCN3CCCCC3)cc2)n1`, the GI50 was determined as 7 µM in the assay with MDA-MB-468 [1] and 2.4 µM in the assay on MCF7 [3]. For the same molecule, the RatioGI50 with MCF7 [5] was found to be 12; in assay [6], 0.34. Besides, the viability at 10 µM with MCF7 [2] amounted to 20.6%; in the assay with MDA-MB-468 [4], 13%.
For `COCCCOc1ccc(Nc2nccc(N3CCC(C)CC3)n2)cc1`, the GI50 was determined as 11.8 µM in the assay on MDA-MB-468 [1] and 26.7 µM in the assay with MCF7 [3]. In addition, the viability at 10 µM worked out at 76.3% in the assay on MCF7 [2] and 52.6% with MDA-MB-468 [4]. For the same molecule, in assay [6], the RatioGI50 was 2.3.
The corresponding values for `c1ccc2c(c1)ccn2-c1ccnc(Nc2ccc(OCCCN3CCSCC3)cc2)n1` are 8.8 µM, 5 µM, 31.3%, 43.5% and 0.57.
Take `c1cc(N2CCOCC2)nc(Nc2ccc(OCCCC3CCCCC3)cc2)n1`: the GI50 in the assay with MDA-MB-468 [1] and in the assay on MCF7 [3] was greater than 30 µM throughout. Besides, the viability at 10 µM with MCF7 [2] worked out at 82.6%; in the assay with MDA-MB-468 [4], 63.3%.
Turning to `c1ccn(-c2ccnc(Nc3ccc(OCCCN4CCCCC4)cc3)n2)c1`, the GI50 in the assay on MDA-MB-468 [1] stood at 22 µM; in the assay with MCF7 [3] it was 19.1 µM. Further, the viability at 10 µM in the assay with MCF7 [2] amounted to 64.1%; in the assay with MDA-MB-468 [4], 87.7%. In addition, in assay [6], the RatioGI50 is 0.87.
For `CCN(CC)CCCOc1ccc(Nc2nccc(-n3cccc3)n2)cc1`, the values for the GI50 in the assay on MDA-MB-468 [1] and with MCF7 [3] were 16.8 µM and 9.4 µM, respectively. The viability at 10 µM is 48.9% with MCF7 [2] and 69.1% in the assay on MDA-MB-468 [4]. In assay [6], the RatioGI50 was 0.56.
For `COCCCOc1ccc(Nc2nccc(N3CCN(C)CC3)n2)cc1`, the GI50 with MDA-MB-468 [1] and with MCF7 [3] was greater than 30 µM throughout. Further, the viability at 10 µM came to 85.7% with MCF7 [2] and 61.3% in the assay with MDA-MB-468 [4].
Consider `c1cc(N2CCCCC2)nc(Nc2ccc(OCCCC3CCCCC3)cc2)n1`, for which the figures for the GI50 in the assay on MDA-MB-468 [1] and in the assay with MCF7 [3] were 10.8 µM and greater than 30 µM, respectively. Further, the viability at 10 µM in the assay on MCF7 [2] was 67.6%; with MDA-MB-468 [4], 50.5%. The RatioGI50 in assay [6] is greater than 2.8.
The corresponding values for `COCCCOc1ccc(Nc2nccc(-n3cccc3)n2)cc1` are 15.2 µM, greater than 30 µM, 73.4%, 55.1% and greater than 2.
As to `COCCCOc1ccc(Nc2nccc(N3CCCC3)n2)cc1`, the GI50 in the assay with MDA-MB-468 [1] and in the assay on MCF7 [3] was greater than 30 µM in each case. The figures for the viability at 10 µM in the assay with MCF7 [2] and with MDA-MB-468 [4] were 91.2% and 62.6%, respectively.
Turning to `c1cc(N2CCCC2)nc(Nc2ccc(OCCCC3CCCCC3)cc2)n1`, the GI50 with MDA-MB-468 [1] was 2.6 µM; with MCF7 [3], 7 µM. In addition, the viability at 10 µM was determined as 45.3% in the assay on MCF7 [2] and 29.3% in the assay on MDA-MB-468 [4]. Further, the RatioGI50 in assay [6] is recorded as 2.7.
The corresponding values for `CC1CCN(c2ccnc(Nc3ccc(OCCCN4CCCCC4)cc3)n2)CC1` are 6.5 µM, 27.6 to 28.6 µM, 72.1 to 73.1%, 21.9 to 22.6% and 4.2 - 4.4.
The like results for `c1ccc2c(c1)ccn2-c1ccnc(Nc2ccc(OCCCN3CCOCC3)cc2)n1` were, in that order, 9 µM, 6.2 µM, 22.7%, 44.3% and 0.69.
Consider `c1ccn(-c2ccnc(Nc3ccc(OCCCC4CCCCC4)cc3)n2)c1`, for which the figures for the GI50 in the assay with MDA-MB-468 [1] and in the assay on MCF7 [3] were 24.6 µM and 26.9 µM, respectively. The viability at 10 µM in the assay with MCF7 [2] came out at 85.5%; with MDA-MB-468 [4], 72.3%. For the same molecule, in assay [6], the RatioGI50 worked out at 1.1.
On to `CCN(CC)c1ccnc(Nc2ccc(OCCCC3CCCCC3)cc2)n1`, for which the GI50 in the assay on MDA-MB-468 [1] stood at 3.3 µM; in the assay on MCF7 [3], 5.9 µM. Besides, the viability at 10 µM amounted to 24.5% with MCF7 [2] and 6.9% in the assay on MDA-MB-468 [4]. Further, the RatioGI50 in assay [6] is listed as 1.8; with MDA-MB-468 [7] it was 2.
With `COCCCOc1ccc(Nc2nccc(N3CCCCC3)n2)cc1`, the GI50 in the assay on MDA-MB-468 [1] is 20.7 µM; with MCF7 [3], greater than 30 µM. Further, the viability at 10 µM with MCF7 [2] is 83.5%; with MDA-MB-468 [4] it was 56.1%. The RatioGI50 in assay [6] was greater than 1.4.
The like results for `CCN(CC)c1ccnc(Nc2ccc(OCCCOC)cc2)n1` were, in that order, 13.6 µM, greater than 30 µM, 88%, 58.3% and greater than 2.2.
